# Laboratory results as given in patent US11944628B2, “Methods for the use of low-dose immune modulators transiently for treating patients undergoing protein replacement therapy” (Duke University, priority 2017, dated 2024).
# Several values for one entry are separate records, joined by “and”; a condition that tells them apart may be missing. Identical values can stand only once. Entries after “also recorded” stand apart in the source; their conditions may differ. Like-named read-outs stand apart in the source and are kept apart here. Marks after values point to notes of the source that are not given here.
# Legend:
# [1] = test system: anti-rhGAA IgG antibodies; experiment: Anti-rhGAA IgG antibody titers over time (ELISA, confirmed by radioimmunoprecipitation) in Pompe disease patients on ERT with TLD-MTX or on ERT monotherapy (comparators); format: in vivo, human; details: for Percent of patients in HSAT group: HSAT: titers >=51,200 on >=2 occasions at or beyond 6 months on ERT; for Percent of patients who developed HSAT or SIT: comparator group n=37, TLD-MTX group n=14; for Percent of patients in SIT group: SIT: titers >=12,800 and <51,200 within first year of ERT; for Overall immune tolerance outcome versus historical data: cohort conclusion in words; for Development of HSAT: methotrexate recipients: Example 2 (n=17), Example 3 (n=14, by data cutoff Jun. 16, 2017)
# Method: Methotrexate at 0.4 mg/kg body weight was administered subcutaneously (or orally if subcutaneous administration was not possible) on three consecutive days/MTX cycle/infusion; with the first three ERT infusions (i.e., on Days 0, 14, and 28 for patients infused EOW) for a total of 3 cycles. On the day of ERT infusion, methotrexate was administered 15 minutes (if subcutaneous) or 1 hour (if oral) before infusion initiation and again on the following 2 days. To exemplify the schedule, in a patient receiving ERT infusion EOW, methotrexate was administered on Days 0, 1, and 2 (first cycle); Days 14, 15, and 16 (second cycle), and Days 28, 29, and 30 (third cycle). As stated earlier, the dose and frequency of ERT could be increased at the discretion of the treating physician, based on patients' clinical and IAR status, in which case methotrexate cycles were adjusted accordingly (see FIG. 2 for details).
# Anti-rhGAA IgG antibodies were determined by Sanofi Genzyme (Framingham, MA, USA) using enzyme-linked immunosorbent assays and confirmed using radioimmunoprecipitation as described previously (Kishnani et al. (2006) J. Pediatr. 149:89-97). Antibody analyses were recommended to be performed at Days −1, 28, 56, 84, 112, 140, 168, 196, 224, 252, 280, 308, 336, and 364.
# rhGAA IgG titers were determined over time. Patients were classified into HSAT (≥51,200 on ≥2 occasions at or beyond 6 months on ERT), sustained intermediate titer (SIT) (≥12,800 and <51,200 within the first year of ERT), and low titer (LT; ≤6,400 within the first year of ERT) groups based on the longitudinal anti-rhGAA IgG titers. […] Medians and ranges were determined for baseline, peak, and last titers, although our focus was on longitudinal titers through time because sustained titers affect clinical response.
# The comparators received rhGAA alone. The GAA variant data and age at ERT initiation were compared with our cohort of TLD-MTX recipients. Immune responses over time were classified into HSAT, SIT, and LT as defined above, and time to seroconversion, peak titers, titers at Weeks 12, 24, and 52 were compared with our present cohort of TLD-MTX recipients.
# anti-rhGAA IgG response = details: methotrexate alone, transient low dose co-initiated with ERT, Joseph et al. (2008); cited from earlier work
# [2] = Safety: hematologic and biochemical analyses (ANC, AST, ALT), adverse events and infections in methotrexate recipients; format: in vivo, human; details: for Neutropenia (ANC <750 cells/mm^3), percent of patients: transient; for ALT > 3x baseline (Yes/No) / ANC < 750 cells/mm^3 (Yes/No) / AST > 3x baseline (Yes/No): first 6 weeks on alglucosidase alfa
# Method: On Days −1 (baseline), 13, 28, 42, 56, 84, 168, 252, 336, and 364, blood samples were recommended to be collected for hematologic and biochemical analyses for patients receiving ERT EOW. The sampling schedule was modified for patients receiving ERT weekly (FIG. 2). Complete and differential blood counts and platelets were evaluated and monitored for platelet counts <50,000/mm^3, ANC <750/mm^3, and treatment-resistant infections. Biochemical analyses monitored alanine aminotransferase (ALT), aspartate aminotransferase (AST), creatine kinase (CK), and CK-MB levels. Post-treatment increases in AST and ALT levels were noted if exceeding three times their respective baseline levels.
# [3] = test system: anti-rhGAA IgG antibodies; details: 10 LOPD patients, 4 years, annual titers; cited from earlier work
# [4] = test system: anti-rhGAA IgG antibodies; details: cited from earlier work
# [5] = test system: anti-rhGAA IgG antibodies; details: LOTS, cited from earlier work
# [6] = LT group, IOPD, seropositive titers <100 deemed 50
# [7] = individual SIT patients IOPD13 and IOPD14 (patient named in the cell), listed as TLD-MTX
# [8] = individual atypical IOPD patients
molecule,measurement,setting,value
CN(Cc1cnc2nc(N)nc(N)c2n1)c1ccc(C(=O)N[C@@H](CCC(=O)O)C(=O)O)cc1 [methotrexate],Median last titer,"[1]; 17 CRIM-positive IOPD, atypical IOPD and LOPD methotrexate recipients (Example 2), median ~68 weeks on alglucosidase alfa","100 (range, 0-6400) and 100 (range 0-6400)"
same,Patients remaining seronegative,[1]; Example 2 cohort of 17 patients,1 of 17
same,Highest observed titer in the study,"[1]; Example 2 cohort, IOPD patient (Patient 3) given one methotrexate dose each in cycles 2 and 3","12,800"
same,Percent of patients in HSAT group,[1]; IOPD,0%
same,Titer,"[1]; IOPD Patient 3, Week 49",400
same,Titer,"[1]; IOPD Patient 3, by Week 20",3200
same,Percent of patients who developed HSAT or SIT,[1]; IOPD,14.2%
same,Median peak titers,"[1]; LT group, IOPD","3,200"
same,Median titers (Week 12),"[1]; LT group, IOPD","1,600"
same,Median titers (Week 24),"[1]; LT group, IOPD",600
same,Median titers (Week 52),[1]; [6],250***
same,Percent of patients in SIT group,[1]; IOPD,14.2% (n = 2)
same,Overall immune tolerance outcome versus historical data,[1]; listed as TLD-MTX,successfully blunted the immune response overall
same,Overall immune tolerance outcome versus historical data,[1]; listed as low-dose methotrexate,successfully induced immune tolerance
same,Peak antibody titer since immune tolerance induction,"[1]; individual IOPD patients (one line per patient), >6 months follow-up, methotrexate 0.4 mg/kg, 3 cycles, with alglucosidase alfa","3,200 (3×) and <100 and 200 and 800 (3×) and 6,400"
same,Peak antibody titer since immune tolerance induction,"[1]; individual IOPD patients (one line per patient), >6 months follow-up, methotrexate 0.4 mg/kg, 3 cycles, with alglucosidase alfa, single methotrexate dose in cycles 2 and 3","12,800*"
same,Last antibody titer,"[1]; individual IOPD patients (one line per patient), last titer at 42-122 weeks on ERT","0 (4×) and 400 and <100 and 100 (2×) and 6,400"
same,Last antibody titer,"[1]; individual IOPD patients (one line per patient), last titer at 42-122 weeks on ERT, single methotrexate dose in cycles 2 and 3",400
same,Peak antibody titer,"[1]; individual IOPD patients IOPD1-IOPD14 (one line per patient) on TLD-MTX protocol, >6 months follow-up","12,800* and 3,200 (4×) and 200 (2×) and 800 (3×) and 6,400 and 51,200** and 25,600*** and <100"
same,Last antibody titer,"[1]; individual IOPD patients IOPD1-IOPD14 on TLD-MTX protocol, last titer at 32-122 weeks on ERT","400 (3×) and 0 (4×) and <100 and 100 (2×) and 6,400 and 200 and 12,800 and 12.800"
same,Peak antibody titer since immune tolerance induction,"[1]; individual LOPD patients (one line per patient), >6 months follow-up","1,600 and 800"
same,Last antibody titer,"[1]; individual LOPD patients, last titer at 63 and 27 weeks on ERT",0 and 400
same,Titer (Week 52),[1]; individual SIT patient IOPD13,"IOPD13: 12,800"
same,Peak titer,[1]; [7],"IOPD13: 51,200;; also recorded: IOPD14: 12,800"
same,Titer (Week 12),[1]; [7],"IOPD13: 12,800;; also recorded: IOPD14: 25,600"
same,Titer (Week 24),[1]; [7],"IOPD13: 12,800;; also recorded: IOPD14: 12,800"
same,Peak antibody titer since immune tolerance induction,"[1]; individual atypical IOPD patients (one line per patient), >6 months follow-up","3,200 and Never and <100 and 800 and 200"
same,Last antibody titer,"[1]; individual atypical IOPD patients, last titer at 58-145 weeks on ERT",400 and 0 and <100 and 200 (2×)
same,"Peak antibody titer, median",[1]; median of 14 IOPD patients on TLD-MTX protocol,"3,200"
same,"Last antibody titer, median","[1]; median of 14 IOPD patients on TLD-MTX protocol, median time on ERT ~71 weeks","150 (range, 0-12,800)"
same,Development of HSAT,[1],No patients who received methotrexate developed HSAT; also recorded: No methotrexate recipients developed HSAT
same,Development of HSAT,[1]; listed as TLD-MTX,No patients who received TLD-MTX developed HSAT
same,Maximal titer,"[1]; one methotrexate-treated LOPD patient, Weeks 16 and 20","1,600"
same,"Titers remaining (seropositive on screening assay, below limit of titer measurement)",[1]; patient IOPD2,< 100
same,Titer,"[1]; patient IOPD13, Week 7 only","51,200"
same,Peak titer after the cutoff date (HSAT developed),"[1]; patient IOPD13, Week 76","102,400"
same,Titer,"[1]; patient IOPD13, Weeks 12 and 37","25,600"
same,Titer,"[1]; patient IOPD13, Weeks 14, 17, 23, 31 and 44","12,800"
same,Titer,"[1]; patient IOPD14, Week 28 only","25,600"
same,Last titer after the cutoff for data collection,"[1]; patient IOPD14, Week 36","6,400"
same,Titer,"[1]; patient IOPD14, Weeks 12, 16, 24 and 32","12,800"
same,Titer,"[1]; same LOPD patient, Week 63",0
same,Titer,"[1]; same LOPD patient, Weeks 32-55",100
same,Titer,"[1]; the other LOPD patient, Week 27",400
same,Maximal titer,"[1]; the other methotrexate-treated LOPD patient, Weeks 9-16",800
same,Effect on anti-rhGAA IgG response,anti-rhGAA IgG response,sustainably reduced anti-rhGAA IgG response
same,"Neutropenia (ANC <750 cells/mm^3), percent of patients",[2]; 2 of 9 IOPD patients with ANC data (Example 2),22%
same,"Neutropenia (ANC <750 cells/mm^3), percent of patients",[2]; 2 of 13 IOPD patients with ANC data (Example 3),15.4%
same,ALT > 3x baseline (Yes/No),[2]; individual IOPD patients,Yes (3×) and No (5×)
same,ANC < 750 cells/mm^3 (Yes/No),[2]; individual IOPD patients,Yes (2×) and No (7×)
same,AST > 3x baseline (Yes/No),[2]; individual IOPD patients,No (7×) and Yes
same,ALT > 3x baseline (Yes/No),[2]; individual LOPD patients,No
same,ANC < 750 cells/mm^3 (Yes/No),[2]; individual LOPD patients,No
same,AST > 3x baseline (Yes/No),[2]; individual LOPD patients,No
same,ALT > 3x baseline (Yes/No),[2]; [8],No
same,ANC < 750 cells/mm^3 (Yes/No),[2]; [8],No
same,AST > 3x baseline (Yes/No),[2]; [8],No
same,Overall tolerability,[2]; methotrexate recipients,tolerated the methotrexate protocol reasonably
same,Serious AEs related to methotrexate,[2]; methotrexate recipients,No serious AEs were related to methotrexate
same,Patients with hospitalizations related to infections around the time of methotrexate administration,"[2]; patients with infection data available (Example 3), resolved",Two of nine
Alglucosidase alfa [ERT monotherapy],Range of peak titers,[1]; HSAT comparators (5/37),"51,200-409,600"
same,Group median last titer,"[1]; HSAT group of 37 CRIM-positive IOPD comparators, median time on ERT Week 94","102,400"
same,Median peak titers,"[1]; HSAT group, IOPD","204,800 (range, 51,200-409,600)"
same,Median titers (Week 12),"[1]; HSAT group, IOPD","25,600"
same,Median titers (Week 24),"[1]; HSAT group, IOPD","25,600"
same,Median titers (Week 52),"[1]; HSAT group, IOPD","51,200"
same,Seroconversion week (median time to seroconversion),"[1]; HSAT group, IOPD",≤ 4 weeks
same,Percent of patients in HSAT group,[1]; IOPD,13.5%
same,Percent of patients who developed HSAT or SIT,[1]; IOPD,32.4%
same,Range of peak titers,[1]; LT comparators (23/37 as printed),"200-12,800"
same,Group median last titer,"[1]; LT group of 37 CRIM-positive IOPD comparators, median time on ERT Week 130",400
same,Median peak titers,"[1]; LT group, IOPD","800 (range, 200-12,800)"
same,Median titers (Week 12),"[1]; LT group, IOPD",400
same,Median titers (Week 24),"[1]; LT group, IOPD",400
same,Seroconversion week (median time to seroconversion),"[1]; LT group, IOPD",8 weeks
same,Median titers (Week 52),[1]; [6],200
same,Percent of patients in LT group,"[1]; LT: titers <=6,400 within first year of ERT, IOPD",67.6%
same,Range of peak titers,[1]; SIT (IT) comparators (7/37),"12,800-51,000"
same,Group median last titer,"[1]; SIT group of 37 CRIM-positive IOPD comparators, median time on ERT Week 104","1,600"
same,Median peak titers,"[1]; SIT group, IOPD","25,600 (range, 12,800-51,200)"
same,Median titers (Week 12),"[1]; SIT group, IOPD","12,800"
same,Median titers (Week 24),"[1]; SIT group, IOPD","12,800"
same,Median titers (Week 52),"[1]; SIT group, IOPD","3,200"
same,Seroconversion week (median time to seroconversion),"[1]; SIT group, IOPD",4 weeks
same,Percent of patients in SIT group,[1]; IOPD,18.9%
same,Highest antibody titer of any patient,[3],"≤ 25,600"
same,Percent of patients with high antibody titers,"[4]; CRIM-positive IOPD, 9 of 23, Banugaria et al. (2011)",39%
same,Percent of patients developing HSAT,[4]; CRIM-positive patients with IOPD,~40%
same,Percent of patients developing HSAT,[4]; patients with LOPD,10%
same,"Geometric mean titer, maximum","[5]; LOPD, Week 44","2,925"
same,"Geometric mean titer, last","[5]; LOPD, Week 78","1,607"
same,Median last titer,"[5]; LOPD, Week 78","1,600"
same,Median peak titer,"[5]; LOPD, median time 12 weeks of alglucosidase alfa therapy","6,400"
same,Peak IgG titer quartile,[5]; first quartile (n=17),"200-1,600"
same,Peak IgG titer quartile,[5]; fourth quartile (n=14),"25,600-819,200"
same,Peak IgG titer quartile,[5]; second quartile (n=12),"3,200"
same,Peak IgG titer quartile,[5]; third quartile (n=16),"6,400-12,800"
